Results: US20250296971A1, “GASTRIC INHIBITORY PEPTIDE RECEPTOR LIGANDS” (priority 2021, published 2025)
*1 amine or outer side, *2 acyl side, *3 side chain or, on linkers, in order; H or OH if unused. Where a SMILES comes first, the peptide text is derived from it. Bridges are numbered along the chain shown (N, C = ends). [ ]: non-standard residue; d: D form. The star is where a group is joined. X5 = NC(=O)[C@H](CCCCNC(=O)CN1CCN(CC(=O)O)CCN(CC(=O)O)CCN(CC(=O)O)CC1)NC(=O)CCC(=O)NCCCOCCOCCOCCCN*; X3 = O=C(O)CN1CCN(CC(=O)O)CCN(CC(=O)NCCCOCCOCCOCCCN*)CCN(CC(=O)O)CC1; DOTA = O=C(O)CN1CCN(CC(=O)O)CCN(CC(=O)*)CCN(CC(=O)O)CC1; Trp(5-Br) = N[C@@H](Cc1c[nH]c2ccc(Br)cc12)C(=O)O; Trp(5-Cl) = N[C@@H](Cc1c[nH]c2ccc(Cl)cc12)C(=O)O; Trp(5-F) = N[C@@H](Cc1c[nH]c2ccc(F)cc12)C(=O)O; Trp(6-F) = N[C@@H](Cc1c[nH]c2cc(F)ccc12)C(=O)O; 1Nal = N[C@@H](Cc1cccc2ccccc12)C(=O)O; mXylylene = c1cc(C[*:1])cc(C[*:2])c1; X29 = c1cc(CNCCN[*:2])cc(C[*:1])c1; X6 = c1cc(CSCCN[*:2])nc(C[*:1])c1; X7 = c1cc(CSCCN[*:2])cc(C[*:1])c1; X1 = O=C(CN1CCC(N[*:1])CC1)[*:2]; X15 = c1ncc(C[*:1])cc1CSCCN[*:2]; Suc = O=C(CCC(=O)[*:2])[*:1]; Ac6c = NC1(C(=O)O)CCCCC1; Api = NC1(C(=O)O)CCNCC1; Thp = NC1(C(=O)O)CCOCC1; Aib = CC(C)(N)C(=O)O

Biological target: T1, GIPR (CHO-K1-hGIPR cells) (Homo sapiens, UniProt P48546)
T1 construct: host or cells: CHO-K1
T1 sequence (P48546 22-466): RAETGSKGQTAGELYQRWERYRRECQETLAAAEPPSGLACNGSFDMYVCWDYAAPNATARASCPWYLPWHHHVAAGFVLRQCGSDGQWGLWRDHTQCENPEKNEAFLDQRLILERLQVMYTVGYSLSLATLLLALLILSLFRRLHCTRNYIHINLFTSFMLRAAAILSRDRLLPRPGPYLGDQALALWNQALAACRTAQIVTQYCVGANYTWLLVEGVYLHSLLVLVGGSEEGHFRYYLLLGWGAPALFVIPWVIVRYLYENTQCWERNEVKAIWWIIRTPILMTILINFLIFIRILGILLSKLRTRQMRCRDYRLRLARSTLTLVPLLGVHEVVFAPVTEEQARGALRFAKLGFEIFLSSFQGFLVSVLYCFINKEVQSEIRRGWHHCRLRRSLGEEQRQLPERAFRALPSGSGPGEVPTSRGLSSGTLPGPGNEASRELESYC
Assay: FACS binding assay
Settings: competition with 20 nM GIP-057, 4° C., 1 hour, read-out: pIC50 Category (converted)
Procedure, shortened: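 Read-out: flow cytometric median fluorescence intensity, APC/Cy5 channel, plotted vs peptide conc.; 4PL fit → EC50/pEC50 or IC50/pIC50. Cells: CHO-K1-hGIPR, Accutase-detached, 500.000/mL in PBS + 1% FCS. Detection: APC-streptavidin 1 μg/mL, 30 min, on ice.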

IC50 [nM]	Structure (SMILES)
< 10	CC[C@H](C)[C@@H]1NC(=O)[C@H](CC(C)C)NC(=O)C(C)(C)NC(=O)[C@@H](NC(=O)[C@@H](CC(C)C)NC(=O)[C@H](CCC(=O)O)NC(=O)[C@@H]2CCCN2C(=O)[C@H](Cc2c[nH]c3ccc(F)cc23)NC(=O)[C@H](Cc2c[nH]c3ccccc23)NC(=O)[C@H](CC(=O)O)NC(C)=O)CSCc2cccc(c2)CSC[C@@H](C(=O)NCCCOCCOCCOCCCNC(=O)CCC(=O)N[C@@H](CCCCNC(=O)CN2CCN(CC(=O)O)CCN(CC(=O)O)CCN(CC(=O)O)CC2)C(N)=O)NC1=O [GIP-081, Ac-Asp-Trp-5Fw-Pro-Glu-leu-[Cys(3MeBn)-Aib-Leu-Ile-Cys]-Ttds-Lys(DOTA)-NH2] (Ac-DW[Trp(5-F)]PE[dL]C[Aib]LIC-X5; linker 7-11 via mXylylene)
< 10	CC[C@H](C)[C@@H]1NC(=O)[C@H](CC(C)C)NC(=O)C(C)(C)NC(=O)[C@@H](NC(=O)[C@@H](CC(C)C)NC(=O)[C@H](CCC(=O)O)NC(=O)[C@@H]2CCCN2C(=O)[C@H](Cc2c[nH]c3ccc(Br)cc23)NC(=O)[C@H](Cc2c[nH]c3ccccc23)NC(=O)[C@H](CC(=O)O)NC(C)=O)CSCc2cccc(c2)CSC[C@@H](C(=O)NCCCOCCOCCOCCCNC(=O)CCC(=O)N[C@@H](CCCCNC(=O)CN2CCN(CC(=O)O)CCN(CC(=O)O)CCN(CC(=O)O)CC2)C(N)=O)NC1=O [GIP-082, Ac-Asp-Trp-5Brw-Pro-Glu-leu-[Cys(3MeBn)-Aib-Leu-Ile-Cys]-Ttds-Lys(DOTA)-NH2] (Ac-DW[Trp(5-Br)]PE[dL]C[Aib]LIC-X5; linker 7-11 via mXylylene)
< 10	CC[C@H](C)[C@@H]1NC(=O)[C@H](CC(C)C)NC(=O)C(C)(C)NC(=O)[C@@H](NC(=O)[C@@H](CC(C)C)NC(=O)[C@H](CCC(=O)O)NC(=O)[C@@H]2CCCN2C(=O)[C@H](Cc2cccc3ccccc23)NC(=O)[C@H](Cc2c[nH]c3ccc(F)cc23)NC(=O)[C@H](CC(=O)O)NC(C)=O)CSCc2cccc(c2)CSC[C@@H](C(=O)NCCCOCCOCCOCCCNC(=O)CCC(=O)N[C@@H](CCCCNC(=O)CN2CCN(CC(=O)O)CCN(CC(=O)O)CCN(CC(=O)O)CC2)C(N)=O)NC1=O [GIP-083, Ac-Asp-5Fw-1Ni-Pro-Glu-leu-[Cys(3MeBn)-Aib-Leu-Ile-Cys]-Ttds-Lys(DOTA)-NH2] (Ac-D[Trp(5-F)][1Nal]PE[dL]C[Aib]LIC-X5; linker 7-11 via mXylylene)
< 10	CC[C@H](C)[C@@H]1NC(=O)[C@H](CC(C)C)NC(=O)C(C)(C)NC(=O)[C@@H](NC(=O)[C@@H](CC(C)C)NC(=O)[C@H](CCC(=O)O)NC(=O)[C@@H]2CCCN2C(=O)[C@H](Cc2cccc3ccccc23)NC(=O)[C@H](Cc2c[nH]c3cc(F)ccc23)NC(=O)[C@H](CC(=O)O)NC(C)=O)CSCc2cccc(c2)CSC[C@@H](C(=O)NCCCOCCOCCOCCCNC(=O)CCC(=O)N[C@@H](CCCCNC(=O)CN2CCN(CC(=O)O)CCN(CC(=O)O)CCN(CC(=O)O)CC2)C(N)=O)NC1=O [GIP-084, Ac-Asp-6Fw-Ni-Pro-Glu-leu-[Cys(3MeBn)-Aib-Leu-Ile-Cys]-Ttds-Lys(DOTA)-NH2] (Ac-D[Trp(6-F)][1Nal]PE[dL]C[Aib]LIC-X5; linker 7-11 via mXylylene)
< 10	CC[C@H](C)[C@@H]1NC(=O)[C@H](CC(C)C)NC(=O)C(C)(C)NC(=O)[C@@H](NC(=O)[C@H](CC(C)C)NC(=O)[C@H](CCC(=O)O)NC(=O)[C@@H]2CCCN2C(=O)[C@H](Cc2cccc3ccccc23)NC(=O)[C@H](Cc2c[nH]c3ccccc23)NC(=O)CCC(=O)O)CSCc2cccc(c2)CSC[C@@H](C(=O)NCCCOCCOCCOCCCNC(=O)CCC(=O)N[C@@H](CCCCNC(=O)CN2CCN(CC(=O)O)CCN(CC(=O)O)CCN(CC(=O)O)CC2)C(N)=O)NC1=O [GIP-085, HO-Succinyl-Trp-1Ni-Pro-Glu-Leu-[Cys(3MeBn)-Aib-Leu-Ile-Cys]-Ttds-Lys(DOTA)-NH2] (Suc-W[1Nal]PELC[Aib]LIC-X5; linker 6-10 via mXylylene)
< 10	CC[C@H](C)[C@@H]1NC(=O)[C@H](CC(C)C)NC(=O)C2(CCCCC2)NC(=O)[C@@H](NC(=O)[C@@H](CC(C)C)NC(=O)[C@H](CCC(=O)O)NC(=O)[C@@H]2CCCN2C(=O)[C@H](Cc2c[nH]c3ccc(Cl)cc23)NC(=O)[C@H](Cc2c[nH]c3ccccc23)NC(=O)[C@H](CC(=O)O)NC(=O)CCC(=O)NCCCOCCOCCOCCCNC(=O)CN2CCN(CC(=O)O)CCN(CC(=O)O)CCN(CC(=O)O)CC2)CSCc2cccc(c2)CSCCNC1=O [GIP-086, DOTA-Ttds-Asp-Trp-5Clw-Pro-Glu-leu-[Cys(3MeBn)-Egz-Leu-Ile-AET]] ({X3-Suc}-DW[Trp(5-Cl)]PE[dL]C[Ac6c]LI; linker 7-C via X7)
< 10	CC[C@H](C)[C@@H]1NC(=O)[C@H](CC(C)C)NC(=O)C2(CCOCC2)NC(=O)[C@@H](NC(=O)[C@@H](CC(C)C)NC(=O)[C@H](CCC(=O)O)NC(=O)[C@@H]2CCCN2C(=O)[C@H](Cc2c[nH]c3ccc(Cl)cc23)NC(=O)[C@H](Cc2c[nH]c3ccccc23)NC(=O)[C@H](CC(=O)O)NC(=O)CCC(=O)NCCCOCCOCCOCCCNC(=O)CN2CCN(CC(=O)O)CCN(CC(=O)O)CCN(CC(=O)O)CC2)CSCc2cccc(c2)CSCCNC1=O [GIP-087, DOTA-Ttds-Asp-Trp-5Clw-Pro-Glu-leu-[Cys(3MeBn)-Thp-Leu-Ile-AET]] ({X3-Suc}-DW[Trp(5-Cl)]PE[dL]C[Thp]LI; linker 7-C via X7)
< 10	CC[C@H](C)[C@@H]1NC(=O)[C@H](CC(C)C)NC(=O)C2(CCNCC2)NC(=O)[C@@H](NC(=O)[C@@H](CC(C)C)NC(=O)[C@H](CCC(=O)O)NC(=O)[C@@H]2CCCN2C(=O)[C@H](Cc2c[nH]c3ccc(Cl)cc23)NC(=O)[C@H](Cc2c[nH]c3ccccc23)NC(=O)[C@H](CC(=O)O)NC(=O)CCC(=O)NCCCOCCOCCOCCCNC(=O)CN2CCN(CC(=O)O)CCN(CC(=O)O)CCN(CC(=O)O)CC2)CSCc2cccc(c2)CSCCNC1=O [GIP-088, DOTA-Ttds-Asp-Trp-5Clw-Pro-Glu-leu-[Cys(3MeBn)-Apc-Leu-Ile-AET]] ({X3-Suc}-DW[Trp(5-Cl)]PE[dL]C[Api]LI; linker 7-C via X7)
< 10	CC[C@H](C)[C@@H]1NC(=O)[C@H](CC(C)C)NC(=O)C(C)(C)NC(=O)[C@@H](NC(=O)[C@@H](CC(C)C)NC(=O)[C@H](CCC(=O)O)NC(=O)[C@@H]2CCCN2C(=O)[C@H](Cc2c[nH]c3ccc(Cl)cc23)NC(=O)[C@H](Cc2c[nH]c3ccccc23)NC(=O)[C@H](CC(=O)O)NC(=O)CN2CCC(NC(=O)CN3CCN(CC(=O)O)CCN(CC(=O)O)CCN(CC(=O)O)CC3)CC2)CSCc2cccc(c2)CSCCNC1=O [GIP-089, DOTA-APAc-Asp-Trp-5Clw-Pro-Glu-leu-[Cys(3MeBn)-Aib-Leu-Ile-AET]] ({DOTA}-[X1]DW[Trp(5-Cl)]PE[dL]C[Aib]LI; linker 8-C via X7)
< 10	CC[C@H](C)[C@@H]1NC(=O)[C@H](CC(C)C)NC(=O)C(C)(C)NC(=O)[C@@H](NC(=O)[C@@H](CC(C)C)NC(=O)[C@H](CCC(=O)O)NC(=O)[C@@H]2CCCN2C(=O)[C@H](Cc2c[nH]c3ccc(Cl)cc23)NC(=O)[C@H](Cc2c[nH]c3ccccc23)NC(=O)[C@H](CC(=O)O)NC(=O)CCC(=O)NCCCOCCOCCOCCCNC(=O)CN2CCN(CC(=O)O)CCN(CC(=O)O)CCN(CC(=O)O)CC2)CSCc2cccc(n2)CSCCNC1=O [GIP-090, DOTA-Ttds-Asp-Trp-5Clw-Pro-Glu-leu-[Cys(2Lut)-Aib-Leu-Ile-AET]] ({X3-Suc}-DW[Trp(5-Cl)]PE[dL]C[Aib]LI; linker 7-C via X6)
< 10	CC[C@H](C)[C@@H]1NC(=O)[C@H](CC(C)C)NC(=O)C(C)(C)NC(=O)[C@@H](NC(=O)[C@@H](CC(C)C)NC(=O)[C@H](CCC(=O)O)NC(=O)[C@@H]2CCCN2C(=O)[C@H](Cc2c[nH]c3ccc(Cl)cc23)NC(=O)[C@H](Cc2c[nH]c3ccccc23)NC(=O)[C@H](CC(=O)O)NC(=O)CCC(=O)NCCCOCCOCCOCCCNC(=O)CN2CCN(CC(=O)O)CCN(CC(=O)O)CCN(CC(=O)O)CC2)CSCc2cncc(c2)CSCCNC1=O [GIP-091, DOTA-Ttds-Asp-Trp-5Clw-Pro-Glu-leu-[Cys(3Lut)-Aib-Leu-Ile-AET]] ({X3-Suc}-DW[Trp(5-Cl)]PE[dL]C[Aib]LI; linker 7-C via X15)
< 10	CC[C@H](C)[C@@H]1NC(=O)[C@H](CC(C)C)NC(=O)C(C)(C)NC(=O)[C@@H](NC(=O)[C@@H](CC(C)C)NC(=O)[C@H](CCC(=O)O)NC(=O)[C@@H]2CCCN2C(=O)[C@H](Cc2c[nH]c3ccc(Cl)cc23)NC(=O)[C@H](Cc2c[nH]c3ccccc23)NC(=O)[C@H](CC(=O)O)NC(=O)CCC(=O)NCCCOCCOCCOCCCNC(=O)CN2CCN(CC(=O)O)CCN(CC(=O)O)CCN(CC(=O)O)CC2)CNCc2cccc(c2)CSCCNC1=O [GIP-092, DOTA-Ttds-Asp-Trp-5Clw-Pro-Glu-leu-[Dap(3MeBn)-Aib-Leu-Ile-AET]]
< 10	CC[C@H](C)[C@@H]1NC(=O)[C@H](CC(C)C)NC(=O)C(C)(C)NC(=O)[C@@H](NC(=O)[C@@H](CC(C)C)NC(=O)[C@H](CCC(=O)O)NC(=O)[C@@H]2CCCN2C(=O)[C@H](Cc2c[nH]c3ccc(Cl)cc23)NC(=O)[C@H](Cc2c[nH]c3ccccc23)NC(=O)[C@H](CC(=O)O)NC(=O)CCC(=O)NCCCOCCOCCOCCCNC(=O)CN2CCN(CC(=O)O)CCN(CC(=O)O)CCN(CC(=O)O)CC2)CSCc2cccc(c2)CNCCNC1=O [GIP-093, DOTA-Ttds-Asp-Trp-5Clw-Pro-Glu-leu-[Cys(3MeBn)-Aib-Leu-Ile-en]] ({X3-Suc}-DW[Trp(5-Cl)]PE[dL]C[Aib]LI; linker 7-C via X29)
